# Laboratory results published in ChEMBL document CHEMBL5512663, “Design, synthesis, and evaluation of novel quindoline derivatives with fork-shaped side chains as RNA G-quadruplex stabilizers for repressing oncogene NRAS translation” (Eur J Med Chem, 2024).
# Active and inactive are the calls of the source. The calls are words filed in the database; no cut-off is given here.
# Legend:
# [1] = system: SK-MEL-2; assay: Cytotoxicity against human SK-MEL-2 cells incubated for 48 hrs by MTT assay; assay type: functional, cell-based; details: SK-MEL-2, 48 h
# [2] = system: Quadruplex RNA; assay: Thermal stabilization of NRAS RNA G4 (unknown origin) assessed as change in melting temperature at 10 uM by CD spectrophotometer analysis; assay type: nucleic-acid assay
# [3] = system: SK-MEL-2; assay: Antitumor activity against human SK-MEL-2 cells xenografted in BALB/c nude mouse assessed as reduction in tumor volume at 1 mg/kg, ip measured every 3 days; assay type: functional, organism-based; details: time 21.0 day, TDE = time-dependent effect
# [4] = system: Quadruplex DNA; assay: Thermal stabilization of KRAS G4 (unknown origin); assay type: nucleic-acid assay
# [5] = system: dsDNA; assay: Thermal stabilization of DNA duplex (ds18) (unknown origin); assay type: nucleic-acid assay
# [6] = Drug localization in human SK-MEL-2 cells cytoplasm at 0.5 uM incubated for 24 hrs by laser scanning confocal microscopy; assay type: ADME, subcellular; details: sk-mel-2, 24 h
# [7] = Toxicity in BALB/c nude mouse assessed as discomfort at 1 mg/kg, ip administered every day for 21 days; assay type: organism-based; details: in vivo, 504 h, time 21 day
# [8] = system: A-375; assay: Cytotoxicity against human A-375 cells incubated for 48 hrs by MTT assay; assay type: functional, cell-based; details: A-375, 48 h
# [9] = system: SK-MEL-2; assay: Inhibition of colony formation in human SK-MEL-2 cells at 0.13 to 0.25 uM after 10 days by crystal violet staining based assay; assay type: functional, cell-based; details: dose 0.13-0.25 µM, time 10.0 day
# [10] = system: Quadruplex DNA; assay: Thermal stabilization of NRAS DNA G4 (unknown origin) assessed as change in melting temperature at 10 uM by CD spectrophotometer analysis; assay type: nucleic-acid assay
# [11] = Toxicity in BALB/c nude mouse assessed as weight loss at 1 mg/kg, ip administered every day for 21 days and measured every 3 days; assay type: organism-based; details: in vivo, 504 h, time 21 day
# [12] = Toxicity in BALB/c nude mouse assessed as distress at 1 mg/kg, ip administered every day for 21 days; assay type: organism-based; details: in vivo, 504 h, time 21 day
# [13] = system: Quadruplex RNA; assay: Induction of RNA G4s stabilization in human SK-MEL-2 cells assessed as increase in cytoplasmic rG4s after 24 hrs by immunofluorescence assay; assay type: cell-based
# [14] = Thermal stabilization of thrombin binding aptamer (unknown origin)
# [15] = system: HepG2; assay: Cytotoxicity against human HepG2 cells incubated for 48 hrs by MTT assay; assay type: functional, cell-based; details: HepG2, 48 h
# [16] = system: SK-MEL-2; assay: Antitumor activity against human SK-MEL-2 cells xenografted in BALB/c nude mouse assessed as reduction in tumor weight at 1 mg/kg, ip; assay type: functional, organism-based; details: time 21.0 day, TDE = time-dependent effect
# [17] = molecular target: Quadruplex RNA; assay: Binding affinity to NRAS RNA G4 (unknown origin) by SPR method; assay type: nucleic-acid assay
# [18] = system: RNA; assay: Thermal stabilization of RNA hairpin (unknown origin); assay type: nucleic-acid assay
# [19] = system: HL-60; assay: Cytotoxicity against human HL-60 cells incubated for 48 hrs by MTT assay; assay type: functional, cell-based; details: HL-60, 48 h
# [20] = system: Quadruplex RNA; assay: Induction of NRAS RNA G4 stabilization in human SK-MEL-2 cells transfected with NRAS mutant assessed as reduction in ratio of RL to FL at 0.5 uM incubated for 66 hrs by dual luciferase reporter gene assay; assay type: cell-based
# [21] = system: SK-MEL-2; assay: Downregulation of NRAS mRNA level in human SK-MEL-2 cells by qRT-PCR analysis; assay type: functional, cell-based
# [22] = Toxicity in BALB/c nude mouse assessed as organ damage at 1 mg/kg, ip administered every day for 21 days; assay type: organism-based; details: in vivo, 504 h, time 21 day
# [23] = system: SK-MEL-2; assay: Antitumor activity against human SK-MEL-2 cells xenografted in BALB/c nude mouse assessed as reduction in tumor growth inhibition at 1 mg/kg, ip administered every day for 21 days; assay type: functional; details: SK-MEL-2, 504 h, time 21 day, read-out: TGI
# [24] = system: SK-MEL-2; assay: Antiproliferative activity against human SK-MEL-2 cells at 0.25 uM incubated for 48 hrs by MTT assay; assay type: functional
# [25] = system: SK-MEL-2; assay: Downregulation of NRAS protein level in human SK-MEL-2 cells after 72 hrs by Western blotting analysis; assay type: functional, cell-based; details: dose 0.5-1 µM
# [26] = Toxicity in BALB/c nude mouse assessed as pain at 1 mg/kg, ip administered every day for 21 days; assay type: organism-based; details: in vivo, 504 h, time 21 day
# [27] = system: MCF7; assay: Cytotoxicity against human MCF7 cells incubated for 48 hrs by MTT assay; assay type: functional, cell-based; details: MCF7, 48 h
# [28] = system: Quadruplex RNA; assay: Induction of NRAS RNA G4 stabilization in human SK-MEL-2 cells transfected with NRAS 5'-UTR wild-type assessed as reduction in ratio of RL to FL at 0.5 uM incubated for 66 hrs by dual luciferase reporter gene assay; assay type: cell-based
compound,measurement,setting,value
CCCCN(CCCC)CCCOc1ccc2nc3c(oc4ccc(F)cc43)c(NCCN)c2c1,IC50,[1],2.2 µM
same,ΔTm,[2],22.9 °C
CCCCN(CCCC)CCCNc1ccc2nc3c(oc4ccc(F)cc43)c(NCCN3CCCCC3)c2c1,IC50,[1],5.4 µM
same,ΔTm,[2],21.3 °C
CCCCN(CCCC)CCOc1ccc2nc3c(oc4ccc(F)cc43)c(NCCN3CCCCC3)c2c1,IC50,[1],8.8 µM
same,ΔTm,[2],26.2 °C
Fc1ccc2oc3c(NCCN4CCCC4)c4cc(OCCN5CCCCCC5)ccc4nc3c2c1,IC50,[1],6.9 µM
same,ΔTm,[2],21.4 °C
CCCCN(CCCC)CCOc1ccc2nc3c(oc4ccc(F)cc43)c(NCCN(C)C)c2c1,IC50,[1],4.5 µM
same,ΔTm,[2],26.3 °C
CSc1ccc(/C=C/c2ccc3nc4c(oc5ccccc54)c(NCCN4CCN(C)CC4)c3c2)cc1,IC50,[1],3.2 µM
same,ΔTm,[2],16.8 °C
CCCCN(CCCC)CCOc1ccc2nc3c(oc4ccc(F)cc43)c(NCCN3CCN(C)CC3)c2c1,IC50,[1],7.6 µM
same,ΔTm,[2],30.6 °C
CCN(CC)CCCOc1ccc2nc3c(oc4ccc(F)cc43)c(NCCN(C)C)c2c1,IC50,[1],6.4 µM
same,ΔTm,[2],26.3 °C
CCCCN(CCCC)CCCOc1ccc2nc3c(oc4ccc(F)cc43)c(NCCN3CCCC3)c2c1,IC50,[1],4 µM
same,ΔTm,[2],20.8 °C
CN(C)CCCCCCOc1ccc2nc3c(oc4ccc(F)cc43)c(NCCN(C)C)c2c1,IC50,[1],7.2 µM
same,ΔTm,[2],24.1 °C
CN(C)CCCCCCOc1ccc2nc3c(oc4ccc(F)cc43)c(NCCN)c2c1,IC50,[1],7.1 µM
same,ΔTm,[2],20.7 °C
CCCCN(CCCC)CCCNc1ccc2nc3c(oc4ccc(F)cc43)c(NCCCN)c2c1,IC50,[1],4.5 µM
same,ΔTm,[2],19.3 °C
CCCCN(CCCC)CCCOc1ccc2nc3c(oc4ccccc43)c(NCCN3CCCC3)c2c1,IC50,[1],4.5 µM
same,ΔTm,[2],20.2 °C
NCCNc1c2cc(OCCN3CCCCCC3)ccc2nc2c1oc1ccc(F)cc12,IC50,[1],6.3 µM
same,ΔTm,[2],18.1 °C
CN(C)CCCCCCOc1ccc2nc3c(oc4ccc(F)cc43)c(NCCCN)c2c1,IC50,[1],7.7 µM
same,ΔTm,[2],25.3 °C
CCCCN(CCCC)CCOc1ccc2nc3c(oc4ccc(F)cc43)c(NCCN3CCCC3)c2c1,IC50,[1],5.1 µM
same,ΔTm,[2],24 °C
CCN(CC)CCCOc1ccc2nc3c(oc4ccc(F)cc43)c(NCCCN)c2c1,IC50,[1],3.9 µM
same,ΔTm,[2],25.3 °C
CCCCN(CCCC)CCCOc1ccc2nc3c(oc4ccccc43)c(NCCCN)c2c1,IC50,[1],2.6 µM
same,ΔTm,[2],19.5 °C
CCCCN(CCCC)CCCOc1ccc2nc3c(oc4ccccc43)c(NCCN(C)C)c2c1,IC50,[1],5.7 µM
same,ΔTm,[2],22 °C
NCCCNc1c2cc(OCCN3CCCCCC3)ccc2nc2c1oc1ccc(F)cc12,IC50,[1],5.4 µM
same,ΔTm,[2],24.2 °C
CCN(CC)CCCOc1ccc2nc3c(oc4ccc(F)cc43)c(NCCN3CCCC3)c2c1,IC50,[1],7.1 µM
same,ΔTm,[2],26.3 °C
CCCCN(CCCC)CCCNc1ccc2nc3c(oc4ccc(F)cc43)c(NCCN3CCCC3)c2c1,IC50,[1],3.4 µM
same,ΔTm,[2],19.8 °C
CCCCN(CCCC)CCOc1ccc2nc3c(oc4ccc(F)cc43)c(NCCN)c2c1,IC50,[1],5.1 µM
same,ΔTm,[2],13.4 °C
CN(C)CCCCCCOc1ccc2nc3c(oc4ccc(F)cc43)c(NCCN3CCCC3)c2c1,IC50,[1],7.4 µM
same,ΔTm,[2],24.8 °C
CCCCN(CCCC)CCOc1ccc2nc3c(oc4ccc(F)cc43)c(NCCCN)c2c1,IC50,[1],2 µM
same,ΔTm,[2],22.1 °C
CN(C)CCNc1c2cc(OCCN3CCCCCC3)ccc2nc2c1oc1ccc(F)cc12,IC50,[1],6.6 µM
same,ΔTm,[2],18.1 °C
CCCCN(CCCC)CCCOc1ccc2nc3c(oc4ccc(F)cc43)c(NCCN3CCN(C)CC3)c2c1,IC50,[1],4 µM
same,ΔTm,[2],31.8 °C
CCN(CC)CCCOc1ccc2nc3c(oc4ccc(F)cc43)c(NCCN)c2c1,IC50,[1],6.7 µM
same,ΔTm,[2],21.2 °C
CCCCN(CCCC)CCCNc1ccc2nc3c(oc4ccc(F)cc43)c(NCCN(C)C)c2c1,IC50,[1],3.4 µM
same,ΔTm,[2],19.4 °C
CCCCN(CCCC)CCCNc1ccc2nc3c(oc4ccc(F)cc43)c(NCCN3CCN(C)CC3)c2c1,IC50,[1],4.3 µM
same,ΔTm,[2],25.5 °C
CCCCN(CCCC)CCCOc1ccc2nc3c(oc4ccc(F)cc43)c(NCCN3CCCCC3)c2c1,IC50,[1],5.5 µM
same,ΔTm,[2],24.4 °C
CCCCN(CCCC)CCCOc1ccc2nc3c(oc4ccc(F)cc43)c(NCCN(C)C)c2c1,IC50,[1],4 µM
same,ΔTm,[2],23.9 °C
CCCCN(CCCC)CCCOc1ccc2nc3c(oc4ccc(F)cc43)c(NCCCN)c2c1,Activity,[3],Tde
same,Activity,[4],inactive
same,Activity,[5],inactive
same,Drug uptake,[6],Active
same,Activity,[7],Non-Toxic
same,IC50,[8],4.5 µM
same,IC50,[1],2 µM
same,inhibition,[9],Active
same,ΔTm,[10],19 °C
same,Activity,[11],Non-Toxic
same,Activity,[12],Non-Toxic
same,Activity,[13],Active
same,Activity,[14],inactive
same,IC50,[15],1.5 µM
same,Activity,[16],Tde
same,Kd,[17],2.31 µM
same,Activity,[18],inactive
same,IC50,[19],2.7 µM
same,Activity,[20],inactive
same,Activity,[21],inactive
same,ΔTm,[2],26.1 °C
same,Activity,[22],Non-Toxic
same,inhibition in vivo at 1 mg/kg,[23],54.9%
same,Activity,[24],100%
same,Activity,[25],Dose-Dependent Effect
same,Activity,[26],Non-Toxic
same,IC50,[27],4.1 µM
same,Activity,[28],Active
